Measured values: ChEMBL document CHEMBL3430912, “GSK Tres Cantos Anti-Kinetoplastid Screening (TCAKS) Data”

How the values were obtained:
Trypanosoma cruzi [1] = experiment: GSK_TCAKS: pIC50 Trypanosoma cruzi viability assay using beta-GAL activity. This assay was run at single shot at 5uM compound concentration per well. The biological reagents consisted of NIH-3T3 host cells and trypomastigotes parasitic cells; both cell types were set to a 3.3 * 10^5 cells/mL dilution in assay DMEM by means of a CASY cell counter device using a 60um capillary. 6 uL of the mixture were dispensed per well (about 1 * 10^3 host-cells and 1 * 10^3 parasites) with a Multidrop Combi dispenser. […] In all wells, the percentage of DMSO never exceeded 0.5%. Plates incubated for four days at 37C, 5% CO2. The substrate used for the assay fluorescence intensity (FLINT) readout was resorufin-beta-D-galactopiranoside (Sigma-Aldrich) at 5uM per well. It was diluted in PBS supplemented with the soft detergent Igepal (Fluka).; type: functional, organism-based, Mus musculus; settings: Tulahuen, NIH3T3
Trypanosoma cruzi [2] = experiment: (§1) GSK_TCAKS: pIC50 Trypanosoma cruzi Imaging: Infected Cells. […] Cells were then washed once with PBS before infection. T. cruzi trypomastigotes, collected at days 5 to 8 after infection from LLC-MK2 parasite infected cultures, were allowed to swim out for 4h at 37C from a centrifuged pellet (2,500 rpm/10 min/room temperature). Trypomastigotes were then collected and counted in a CASY Cell Counter. Trypomastigotes, in supplemented DMEM, were added to H9c2 cultures in a multiplicity of infection of 1 and incubated for 18 h. Cells were washed once with PBS before incubation of the infected H9c2 monolayer with trypsin (Life-Technologies) to detach cells from the flask. Cells were counted in a CASY Cell Counter using a 150 um capillary and their density set at 5 * 10^4 cells per mL in supplemented assay DMEM. Infected H9c2 were dispensed into 384-well poly-lysine coated assay plates at 50uL per well using a Multidrop Combi dispenser. After seeding them, the plates were incubated at 37C, 5% CO2 for 72h. Cultures were then fixed and stained by addition of 50 uL of a solution containing 8% formaldehyde and 4 uM DRAQ5 DNA dye (BioStatus, UK) per well. […] Five images were collected per well for reliable statistical analysis. Automated image analysis was performed with a script developed on Acapella High Content Imaging and Analysis Software (PerkinElmer). Output: percentage of infected cells per well as a second infection marker.; type: functional, organism-based, Rattus norvegicus; settings: H9c2, 4 h
Leishmania donovani [3] = experiment: (§2) GSK_TCAKS: pIC50 Leishmania donovani Imaging: Infected Macrophages. Assay plates (384-well) were prepared by adding 250nL of compound to each well. For single shot assay, the final compound concentration was 5 uM. […] Automated image analysis was performed with a script developed on Acapella High Content Imaging and Analysis Software (PerkinElmer). Output: Percent of infected macrophage cells were reported for each well.; type: functional, organism-based, Homo sapiens; settings: THP-1
[4] = GSK_TCAKS: pIC50 HepG2 human cell line viability assay using luminiscence. […] Seeding density was checked to ensure that new mono-layers were not more than 50% confluent at the time of harvesting. Cell suspension was added to 500 mL of the same medium at a final density of 1.2 * 10^5 cells/mL. This cell suspension was dispensed (25 uL, 3000 cells per well) into 384-well clear-bottom plates using a Multidrop Combi dispenser. Prior to addition of the cell suspension, the screening compounds (250 nL) were pre-dispensed into the plates with an Echo liquid handler. Plates were incubated for 48 h at 37C, 5% CO2. After incubation, plates equilibrated at room temperature for 30 min before proceeding to develop the luminescent signal. The signal developer, CellTiter-Glo Reagent, was allowed to equilibrate at room temperature for 30 min and added to the plates (25uL per well) using a Multidrop Combi dispenser. Plates were left for 10 min at room temperature for stabilization and then read using a ViewLux.; type: toxicity, cell-based
Leishmania donovani [5] = experiment: GSK_TCAKS: pIC50 Leishmania donovani viability assay using fluorescence intensity. Assay plates (1536-well) were prepared by adding 30nL per well of compound. For single shot assay, the final compound concentration was 5uM. […] Briefly, eGFP LdBOB axenic amastigotes were harvested, fixed and counted in a CASY cell counter (Roche-Applied Science). A final concentration of 1.5 * 10^5 cells per well were prepared in amastigote media containing 500 U/mL penicillin/streptomycin (Invitrogen) and 6uL was dispensed to each experimental well using a Multidrop Combi dispenser (Thermo Scientific). 6uL of assay media was dispensed to control columns used as reference for 100% compound response. Following incubation for 72 h at 37C, 5% CO2, 2 uL of resazurin was added to each well at a final concentration of 0.5 mM in phosphate buffered saline (PBS) with IGEPAL (Sigma-Aldrich), 0.05% (v/v).; type: functional, organism-based
[6] = test system: Trypanosoma brucei brucei; experiment: GSK_TCAKS: pIC50 Trypanosoma brucei viability assay using fluorescence intensity. Assay plates (1536-well) were prepared by dispensing 25nL of compound solution per well using an Echo acoustic dispenser (Labcyte).; type: functional, organism-based; settings: Lister 427, 2 h
Leishmania donovani [7] = experiment: as §2, with “Amastigotes/Macrophages.” for “Infected Macrophages.”, “Average number” for “Percent”, “amastigotes per” for “infected”, “cell” for “cells”; type: functional, organism-based, Homo sapiens; settings: THP-1
Trypanosoma cruzi [8] = experiment: as §1, with “H2C9” for “Trypanosoma cruzi”, “H9c2 Host Cardiomyocytes.” for “Infected Cells.”, “Number” for “percentage”, “H9c2 Host Cardiomyocytes nuclei to determine drug-related cytotoxicity.” for “infected cells per well as a second infection marker.”; type: functional, organism-based, Rattus norvegicus; settings: H9c2, 4 h
[9] = test system: Trypanosoma brucei brucei; experiment: GSK_TCAKS: pIC50 Trypanosoma brucei viability assay using luminiscence. Assay plates (1536-well) were prepared. T. brucei cultures were harvested and counted in a CASY cell counter. A parasite suspension was prepared at a final concentration of 5 * 10^4 cells/mL in complete HMI9 medium and 6uL was dispensed to all wells containing compounds using a Multidrop Combi dispenser. 6uL of HMI9 media with 0.4% DMSO were dispensed to control columns. Plates were incubated for 24 h at 37C, 5% CO2 then tempered for 10 min at room temperature. ATP content was quantified by adding 4 uL of CellTiter-Glo Reagent (Promega) according to the manufacturer's instructions. Luminescence was measured using a ViewLux.; type: functional, organism-based; settings: Lister 427, CASY
Leishmania donovani [10] = experiment: as §2, with “THP-1 Host” for “Infected”, “THP-1 cell count” for “Percent of infected macrophage cells”; type: functional, organism-based, Homo sapiens
Trypanosoma cruzi [11] = experiment: GSK_TCAKS: pIC50 Trypanosoma cruzi Imaging: Amastigotes/Cell. […] Cells were then washed once with PBS before infection. T. cruzi trypomastigotes, collected at days 5 to 8 after infection from LLC-MK2 parasite infected cultures, were allowed to swim out for 4h at 37C from a centrifuged pellet (2,500 rpm/10 min/room temperature). Trypomastigotes were then collected and counted in a CASY Cell Counter. Trypomastigotes, in supplemented DMEM, were added to H9c2 cultures in a multiplicity of infection of 1 and incubated for 18 h. Cells were washed once with PBS before incubation of the infected H9c2 monolayer with trypsin (Life-Technologies) to detach cells from the flask. Cells were counted in a CASY Cell Counter using a 150 um capillary and their density set at 5 * 10^4 cells per mL in supplemented assay DMEM. Infected H9c2 were dispensed into 384-well poly-lysine coated assay plates at 50uL per well using a Multidrop Combi dispenser. After seeding them, the plates were incubated at 37C, 5% CO2 for 72h. Cultures were then fixed and stained by addition of 50 uL of a solution containing 8% formaldehyde and 4 uM DRAQ5 DNA dye (BioStatus, UK) per well. […] Five images were collected per well for reliable statistical analysis. Automated image analysis was performed with a script developed on Acapella High Content Imaging and Analysis Software (PerkinElmer). Output: number of amastigotes per cell as infection level measurement.; type: functional, organism-based, Rattus norvegicus; settings: H9c2, 4 h
[12] = biological target: Sterol 14-alpha demethylase (Trypanosoma cruzi (strain CL Brener), UniProt Q7Z1V1); experiment: GSK_TCAKS: pIC50 CYP51 from Trypanosoma cruzi.; type: functional
Sterol 14-alpha demethylase, sequence (Q7Z1V1 whole entry): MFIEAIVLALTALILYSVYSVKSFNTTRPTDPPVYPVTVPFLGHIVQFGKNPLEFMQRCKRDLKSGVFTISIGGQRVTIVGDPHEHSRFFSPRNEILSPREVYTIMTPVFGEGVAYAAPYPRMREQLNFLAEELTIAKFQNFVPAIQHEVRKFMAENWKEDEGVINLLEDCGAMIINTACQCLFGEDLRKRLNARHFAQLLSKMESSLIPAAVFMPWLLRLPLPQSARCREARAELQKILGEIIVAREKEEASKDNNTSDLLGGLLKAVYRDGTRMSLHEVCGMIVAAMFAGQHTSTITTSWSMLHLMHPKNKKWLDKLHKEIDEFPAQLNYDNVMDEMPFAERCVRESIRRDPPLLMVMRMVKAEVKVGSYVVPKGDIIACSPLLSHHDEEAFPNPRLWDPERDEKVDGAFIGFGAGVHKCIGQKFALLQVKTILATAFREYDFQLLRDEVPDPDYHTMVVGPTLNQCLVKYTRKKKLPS

Compound | IC50 (Trypanosoma cruzi [1]) | IC50 (Trypanosoma cruzi [2]) | IC50 (Leishmania donovani [3]) | IC50 at 48 h [4] | IC50 (Leishmania donovani [5]) | IC50 [6] | IC50 (Leishmania donovani [7]) | IC50 (Trypanosoma cruzi [8]) | IC50 [9] | IC50 (Leishmania donovani [10]) | IC50 (Trypanosoma cruzi [11]) | IC50 [12]
Nc1nc(-c2ccccn2)nc(N)c1Cc1c(F)cccc1Cl | 1.58 µM | 2 µM | 1.26 µM | 20 µM | 2.51 µM | 2.51 µM | 1 µM | 1.26 µM | 2 µM | 31.6 µM | 1.58 µM | > 100 µM
O=C(Cc1ccc2c(c1)CCC2)Nc1nnc(-c2ccccn2)[nH]1 | 10 µM | 10 µM | 6.31 µM | 50.1 µM | 7.94 µM | 20 µM | 6.31 µM | > 50.1 µM | > 39.8 µM | > 50.1 µM | 10 µM | 2.51 µM
COc1ccc(Nc2nccc(N(C)c3n[nH]c4c(F)cccc34)n2)cc1S(C)(=O)=O | 2 µM | 3.98 µM | 2.51 µM | 20 µM | 25.1 µM | 6.31 µM | 1 µM | 7.94 µM | 10 µM | 10 µM | 2 µM | 31.6 µM
COc1ccccc1CNc1cc(C2CC2)nc(-c2nccn2C)n1 | 0.891 µM | 0.794 µM | 0.501 µM | 20 µM | 1 µM | 2.51 µM | 0.398 µM | 0.631 µM | 2 µM | 15.8 µM | 1 µM | 20 µM
COc1ccc(CNc2cc(C3CC3)nc(-c3nccn3C)n2)cc1 | 1 µM | 0.794 µM | 0.794 µM | 25.1 µM | 2 µM | 1.26 µM | 0.794 µM | 1 µM | 2.51 µM | 12.6 µM | 0.631 µM | 5.01 µM
Cc1ccccc1CNc1cc(C2CC2)nc(-c2nccn2C)n1 | 0.794 µM | 0.794 µM | 0.631 µM | 15.8 µM | 1.58 µM | 2.51 µM | 0.631 µM | 0.794 µM | 1.58 µM | 10 µM | 0.794 µM | 15.8 µM
Cn1ccnc1-c1nc(NCc2ccccc2Cl)cc(C2CC2)n1 | 0.631 µM | 0.794 µM | 0.631 µM | 20 µM | 1.58 µM | 2 µM | 0.2 µM | 0.631 µM | 1.58 µM | 7.94 µM | 0.794 µM | 39.8 µM
Oc1cccnc1-c1nc(Cc2ccccc2)n[nH]1 | 6.31 µM | 7.94 µM | 3.16 µM | 79.4 µM | 2 µM | 5.01 µM | 2 µM | 15.8 µM | 10 µM | 15.8 µM | 6.31 µM | > 100 µM
O=C(Nc1nnc(-c2ccccn2)[nH]1)C1CC1c1ccccc1 (stereo unspecified) | 15.8 µM | 20 µM | 7.94 µM | > 100 µM | 12.6 µM | > 12.6 µM | 7.94 µM | > 50.1 µM | 20 µM | 20 µM | 15.8 µM | > 100 µM
CCOc1ccc(NC(=O)c2ccc(NC(=O)NC3CCCCC3)cc2)cc1 | 31.6 µM | > 50.1 µM | 7.94 µM | > 100 µM | > 50.1 µM | 0.2 µM | 6.31 µM | > 50.1 µM | 0.501 µM | 3.98 µM | > 50.1 µM | > 100 µM
COc1ccc(S(=O)(=O)Nc2ccc(CN3CCN(C(=O)c4cccc(C#N)c4)CC3)cc2)cc1 | 1 µM | 1 µM | > 50.1 µM | > 100 µM | 31.6 µM | 0.398 µM | > 50.1 µM | > 50.1 µM | 0.631 µM | > 50.1 µM | 0.794 µM | > 100 µM
Cc1ccc(S(=O)(=O)Nc2ccc(CN3CCN(C(=O)c4cccc(C)c4)CC3)cc2)cc1 | 0.501 µM | 0.316 µM | 39.8 µM | > 100 µM | 25.1 µM | 0.251 µM | 31.6 µM | > 50.1 µM | 0.501 µM | 39.8 µM | 0.316 µM | 79.4 µM
Cc1ccc(Nc2nc(C3CCCN3Cc3cc[nH]n3)cs2)nc1 (stereo unspecified) | 0.794 µM | 2 µM | 1.58 µM | 31.6 µM | 12.6 µM | 0.794 µM | 1.26 µM | 10 µM | 3.98 µM | 25.1 µM | 2 µM | 6.31 µM
CC(c1ccccn1)N(C)Cc1nc2ccccc2n1C(C)C (stereo unspecified) | 1.58 µM | 6.31 µM | 3.16 µM | 25.1 µM | 10 µM | 12.6 µM | 2 µM | > 50.1 µM | 10 µM | 15.8 µM | 2 µM | 31.6 µM
CC1CCCCN1C(=O)NCCc1coc(-c2ccc(F)cc2)n1 (stereo unspecified) | 0.398 µM | 0.316 µM | > 50.1 µM | > 100 µM | > 50.1 µM | 0.126 µM | > 50.1 µM | > 50.1 µM | 0.158 µM | > 50.1 µM | 0.316 µM | > 100 µM
c1ccc(-c2nc(NC3CCCC3)c3ccccc3n2)nc1 | 2 µM | 0.794 µM | 2 µM | 15.8 µM | 3.98 µM | 6.31 µM | 1.26 µM | 0.501 µM | 6.31 µM | 20 µM | 2 µM | > 100 µM
COc1cc(F)c2ncc(F)c(CCN3CC[C@H](NCc4cc5c(cn4)OCS5)[C@@H](O)C3)c2c1 | 0.398 µM | 0.251 µM | 15.8 µM | 50.1 µM | 25.1 µM | 0.251 µM | 12.6 µM | > 50.1 µM | 0.501 µM | 15.8 µM | 0.2 µM | 31.6 µM
CN(Cc1nc2ccc(C(=O)NCC3CCCCC3)cc2[nH]1)C1CCCc2cccnc21 (stereo unspecified) | 0.501 µM | 0.631 µM | 0.501 µM | 15.8 µM | 3.16 µM | 0.794 µM | 0.398 µM | 5.01 µM | 0.316 µM | 6.31 µM | 0.316 µM | 39.8 µM
